Results reported in patent US20210261621A1, “Preparation of Dilipid Polymixins and Use Thereof as Antimicrobial Adjuvants” (priority 2018, published 2021).
In brackets after ≈: the same amount, converted by molar mass. Where two headings read alike, the source gives them in different places. Positions of bridges follow the written chain, without caps; N, C: chain ends. Non-standard residues stand in square brackets, D forms with d. Residues, ends and D or L forms follow the SMILES beside them. *: point of attachment. Lauroyl = CCCCCCCCCCCC(=O)*; Dab = NCC[C@H](N)C(=O)O

Assays:
P. aeruginosa PAO1 = system: P. aeruginosa PAO1; set-up: MICDrug / MICDrug in combo / MIC of adjuvant in combo: unit not given beside the values
[1] = system: E. coli CANWARD-2011 97615; format: cell-based, Escherichia coli
Summary of the method: (§1)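 Susceptibility is determined by broth microdilution in Mueller-Hinton broth according to CLSI. Compounds are serially diluted 2-fold and challenged with about 5×10^5 CFU/mL bacteria for 18 h at 37° C.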

pig erythrocytes = settings: red cells of pig, 1 h, 512
Description: The ability of the compounds to lyse eukaryotic red blood cells was measured by the amount of hemoglobin released upon incubation with pig erythrocytes, following a published protocol [30]. Briefly, fresh pig blood (generously provided by Dr. Richard Hodges, Director of Animal Care and Veterinary Services of the University of Manitoba) drawn from a pig's antecubital vein was centrifuged at 1000 g for 5 min at 4° C., washed with phosphate-buffered saline (PBS) three times, and re-suspended in the same buffer, consecutively. Compounds at study were 2-fold serially diluted in PBS on a 96-well plate and mixed with equal volumes of erythrocyte solution. Post 1 h incubation at 37° C., the intact cells were pelleted by centrifugation at 1000 g for 5 min at 4° C. Resulting supernatant was then transferred to a new 96-well plate. The hemoglobin released was then measured via an EMax Plus microplate reader (Molecular Devices, USA) at 570 nm wavelength. Erythrocytes in PBS with or without 0.1% Triton X-100 were used as positive or negative control, respectively.

[2] = system: P. aeruginosa CANWARD-2011 96846; format: cell-based, Pseudomonas aeruginosa
Summary of the method: as §1

Compound: CCCCCCCCCCCC(=O)NCC[C@H](NC(=O)CCCCCCCCCCC)C(=O)N[C@H](C(=O)N[C@@H](CCN)C(=O)N[C@H]1CCNC(=O)[C@H]([C@@H](C)O)NC(=O)[C@H](CCN)NC(=O)[C@H](CCN)NC(=O)[C@H](CC(C)C)NC(=O)[C@@H](Cc2ccccc2)NC(=O)[C@H](CCN)NC1=O)[C@@H](C)O [Compound 3, Didodecanoic Acid (Di-C12) Polymyxin] (Lauroyl-[Dab](Lauroyl)T[Dab][Dab][Dab][dF]L[Dab][Dab]T; lactam 4-C)
- MIC of adjuvant alone (MIC1, MIC2, MIC3, MIC4, MIC5, MICPMBN) (P. aeruginosa PAO1; adjuvant alone, one value per checkerboard, in µg/mL): 32
- Interpretation (P. aeruginosa PAO1; combination with Aztreonam): Additive (An FIC index of ≤0.5, 0.5<x≤4, or >4 denotes for synergistic, additive or antagonistic interaction, respectively)
- Interpretation (P. aeruginosa PAO1; combination with Ceftazidime): Additive (An FIC index of ≤0.5, 0.5<x≤4, or >4 denotes for synergistic, additive or antagonistic interaction, respectively)
- Interpretation (P. aeruginosa PAO1; combination with Chloramphenicol): Additive (An FIC index of ≤0.5, 0.5<x≤4, or >4 denotes for synergistic, additive or antagonistic interaction, respectively)
- Interpretation (P. aeruginosa PAO1; combination with Ciprofloxacin): Additive (An FIC index of ≤0.5, 0.5<x≤4, or >4 denotes for synergistic, additive or antagonistic interaction, respectively)
- Interpretation (P. aeruginosa PAO1; combination with Clindamycin): Additive (An FIC index of ≤0.5, 0.5<x≤4, or >4 denotes for synergistic, additive or antagonistic interaction, respectively)
- Interpretation (P. aeruginosa PAO1; combination with Doripenem): Additive (An FIC index of ≤0.5, 0.5<x≤4, or >4 denotes for synergistic, additive or antagonistic interaction, respectively)
- Interpretation (P. aeruginosa PAO1; combination with Doxycycline): Additive (An FIC index of ≤0.5, 0.5<x≤4, or >4 denotes for synergistic, additive or antagonistic interaction, respectively)
- Interpretation (P. aeruginosa PAO1; combination with Fosfomycin): Additive (An FIC index of ≤0.5, 0.5<x≤4, or >4 denotes for synergistic, additive or antagonistic interaction, respectively)
- Interpretation (P. aeruginosa PAO1; combination with Gentamicin): Additive (An FIC index of ≤0.5, 0.5<x≤4, or >4 denotes for synergistic, additive or antagonistic interaction, respectively)
- Interpretation (P. aeruginosa PAO1; combination with Linezolid): Additive (An FIC index of ≤0.5, 0.5<x≤4, or >4 denotes for synergistic, additive or antagonistic interaction, respectively)
- Interpretation (P. aeruginosa PAO1; combination with Meropenem): Additive (An FIC index of ≤0.5, 0.5<x≤4, or >4 denotes for synergistic, additive or antagonistic interaction, respectively)
- Interpretation (P. aeruginosa PAO1; combination with Minocycline): Additive (An FIC index of ≤0.5, 0.5<x≤4, or >4 denotes for synergistic, additive or antagonistic interaction, respectively)
- Interpretation (P. aeruginosa PAO1; combination with Moxifloxacin): Additive (An FIC index of ≤0.5, 0.5<x≤4, or >4 denotes for synergistic, additive or antagonistic interaction, respectively)
- Interpretation (P. aeruginosa PAO1; combination with Novobiocin): Additive (An FIC index of ≤0.5, 0.5<x≤4, or >4 denotes for synergistic, additive or antagonistic interaction, respectively)
- Interpretation (P. aeruginosa PAO1; combination with Piperacillin): Additive (An FIC index of ≤0.5, 0.5<x≤4, or >4 denotes for synergistic, additive or antagonistic interaction, respectively)
- Interpretation (P. aeruginosa PAO1; combination with Pleuromutilin): Additive (An FIC index of ≤0.5, 0.5<x≤4, or >4 denotes for synergistic, additive or antagonistic interaction, respectively)
- Interpretation (P. aeruginosa PAO1; combination with Rifampicin): Additive (An FIC index of ≤0.5, 0.5<x≤4, or >4 denotes for synergistic, additive or antagonistic interaction, respectively)
- Interpretation (P. aeruginosa PAO1; combination with Streptomycin): Additive (An FIC index of ≤0.5, 0.5<x≤4, or >4 denotes for synergistic, additive or antagonistic interaction, respectively)
- Interpretation (P. aeruginosa PAO1; combination with Tobramycin): Additive (An FIC index of ≤0.5, 0.5<x≤4, or >4 denotes for synergistic, additive or antagonistic interaction, respectively)
- Interpretation (P. aeruginosa PAO1; combination with Trimethoprim): Additive (An FIC index of ≤0.5, 0.5<x≤4, or >4 denotes for synergistic, additive or antagonistic interaction, respectively)
- Interpretation (P. aeruginosa PAO1; combination with Vancomycin): Additive (An FIC index of ≤0.5, 0.5<x≤4, or >4 denotes for synergistic, additive or antagonistic interaction, respectively)
- MIC of adjuvant in combo (P. aeruginosa PAO1; in combination with Aztreonam): (16)
- MIC of adjuvant in combo (P. aeruginosa PAO1; in combination with Ceftazidime): (16)
- MIC of adjuvant in combo (P. aeruginosa PAO1; in combination with Chloramphenicol): (16)
- MIC of adjuvant in combo (P. aeruginosa PAO1; in combination with Ciprofloxacin): (0.25)
- MIC of adjuvant in combo (P. aeruginosa PAO1; in combination with Clindamycin): (16)
- MIC of adjuvant in combo (P. aeruginosa PAO1; in combination with Doripenem): (16)
- MIC of adjuvant in combo (P. aeruginosa PAO1; in combination with Doxycycline): (16)
- MIC of adjuvant in combo (P. aeruginosa PAO1; in combination with Fosfomycin): (8)
- MIC of adjuvant in combo (P. aeruginosa PAO1; in combination with Gentamicin): (0.25)
- MIC of adjuvant in combo (P. aeruginosa PAO1; in combination with Linezolid): (32)
- MIC of adjuvant in combo (P. aeruginosa PAO1; in combination with Meropenem): (16)
- MIC of adjuvant in combo (P. aeruginosa PAO1; in combination with Minocycline): (16)
- MIC of adjuvant in combo (P. aeruginosa PAO1; in combination with Moxifloxacin): (16)
- MIC of adjuvant in combo (P. aeruginosa PAO1; in combination with Novobiocin): (16)
- MIC of adjuvant in combo (P. aeruginosa PAO1; in combination with Piperacillin): (16)
- MIC of adjuvant in combo (P. aeruginosa PAO1; in combination with Pleuromutilin): (16)
- MIC of adjuvant in combo (P. aeruginosa PAO1; in combination with Rifampicin): (8)
- MIC of adjuvant in combo (P. aeruginosa PAO1; in combination with Streptomycin): (0.25)
- MIC of adjuvant in combo (P. aeruginosa PAO1; in combination with Tobramycin): (0.25)
- MIC of adjuvant in combo (P. aeruginosa PAO1; in combination with Trimethoprim): (16)
- MIC of adjuvant in combo (P. aeruginosa PAO1; in combination with Vancomycin): (16)
- adjuvant activity (potentiation of the panel of 21 antibiotics) (P. aeruginosa PAO1; result in words): did not enhance the activity of any antibiotics
- MIC [1]: 64 µg/mL (≈ 44.8 µM)
- % Hemolysis at 512 μg/mL of polymyxin (pig erythrocytes): 49.7 ± 3.3%
- MIC [2]: >128 µg/mL
